Measured values: patent EP0359062B1, “Antibiotic GE 2270” (priority 1988, dated 1990)

Test system: Enterococcus faecalis strain L 149
Assay: Bactericidal activity, time-kill curves
Type: cell-based
Settings: 8 mg/I, in 48 h; inoculum 1.4 x 10^7 CFU/ml
Procedure: Time-kill curves were run in 10 ml of Todd-Hewitt broth in 100 ml Erlenmeyer flasks, incubated at 37°C without agitation. A logarithmically growing culture of Enterococcus faecalis strain L 149 was inoculated at 1.4 x 10^7 CFU/ml.
The reference antibiotic (teicoplanin, 8 mg/I) killed 99% of the infecting bacteria in 48 h, while antibiotic GE 2270 factor A (0.13 mg/I) killed 99.8% of the bacteria within 2 h and 99.99% within 48 h at this dose or within 24 h at 4 mg/I.

**Q.** For teicoplanin, which killed bacteria is on record?
**A.** 99%
